Like-named read-outs stand apart in the source and are kept apart here.
Columns and labels:
NRK-49F cells [1] = assay: Delayed suramin treatment of TGF-β1-pretreated renal interstitial fibroblasts; format: cell-based, rat; details: TGF-β1 pretreatment 24 and 48 h, then suramin 100 μM for additional 24 and 48 h with TGF-β1
Method: At 48 h after pretreatment with TGF-β1, expression of α-SMA and fibronectin was induced, which is similar to the in-vivo situation.

obstructed kidney (UUO) = assay: UUO model, delayed administration of suramin at day 3 of obstruction; format: in vivo, mouse
Method: Animals and the UUO Model. The UUO model used was described above. The abdominal cavity was exposed via a midline incision and the left ureter was isolated and ligated. Sham-operated animal received the same surgical procedures but without ureter ligation. To establish the time course of renal fibrogenesis in this model, four groups of mice (n=5) were killed at days 1, 3, 7, and 14, respectively, after left ureter ligation. […] Control mice were injected with the equal volume of vehicle (0.9% saline). At the end of the experiments, mice were killed and the kidneys were removed. One part of the kidneys was fixed in 10% phosphate-buffered formalin for histological studies. Another part was snap-frozen in liquid nitrogen and stored at −80° C. for protein extractions.

[2] = in the body, cited from earlier work
NRK-49F cells [3] = assay: TGF-β1-induced activation of renal interstitial fibroblasts (immunoblot); format: cell-based, rat; details: 2 ng/ml TGF-β1, 24 h
Method: (§1) Cell Culture and Treatments. NRK-49F cells were cultured in Dulbecco's modified eagle's medium (DMEM) (Sigma-Aldrich, St. Louis, Mo.) containing 5% fetal bovine serum (FBS), 0.5% penicillin and streptomycin in an atmosphere of 5% CO2 and 95% air at 37° C. […] For TGF-β1 treatment, NRK-49F were starved for 24 h by incubation with 0.5% FBS containing DMEM and then exposed to TGF-β1 (0.5-2 ng/ml) for 24 h.
(§2) Immunoblot Analysis. Immunoblot analysis of NRK-49F cells and tissue samples were conducted as described previously. The densitometry analysis of immunoblot results was conducted by using NIH Image software (National Institutes of Health, Bethesda, Md.).

remnant kidney = assay: Remnant kidney model (5/6 nephrectomy), suramin treatment; format: in vivo, rat
Description: The remnant kidney model was created in male Sprague-Dawley rats that weighed 180 to 200 g (Charles River Laboratories, Wilmington, Mass.). 5/6 of normal renal mass was surgically ablated according to our previous protocols. Briefly, 20 animals underwent subtotal nephrectomy involving right subcapsular nephrectomy and infarction of approximately two-thirds of the left kidney by ligation of the posterior and one or two anterior extrarenal branches of the renal artery. In addition, 12 rats underwent a sham operation (laparotomy and manipulation of the renal pedicles). On the second week after surgery, rats were randomly divided into suramin treatment and non-treatment groups. […] 24-hour urine samples were collected in metabolic cages at day 0 and weekly for the determination of urinary levels of protein. Blood was taken weekly for the measurement of serum creatinine. At 28 days after surgery, mean blood pressure was measured, and then all animals were sacrificed and kidneys were collected for further analysis. Assessment of Renal Function and Measurement of Blood Pressure. Urinary protein concentrations were determined by using the colorimetric Lowry assay. Serum creatinine was analyzed using a creatinine kit (Sigma). Mean blood pressure was determined via a catheter inserted into the femoral artery attached to the Transonic Systems pressure transducer (Transonic Systems Inc. Ithaca, N.Y.) in anesthetized rats at the end of experiment. Immunoblot Analysis. Immunoblot analysis of NRK-49F cells and tissue samples were conducted as described previously. The densitometry analysis of immunoblot results was conducted by using NIH Image software (National Institutes of Health, Bethesda, Md.). Immunofluorescent and Immunohistochemical Staining Immunofluorescent and immunohistochemical staining was performed according to the procedure described in our previous studies. For assessment of renal fibrosis, masson trichrome staining was performed according to the protocol provided by the manufacture (Sigma, St. Louis, Mo.). The collagen tissue area (blue color) was quantitatively measured using Image Pro-Plus software (Media-Cybernetics, Silver Spring, Md., USA) by drawing a line around the perimeter of positive staining area, and the average ratio to each microscopic field (400×) was calculated and graphed.

NRK-49F cells [4] = assay: Serum (5% FBS)-stimulated activation and kinase phosphorylation in renal interstitial fibroblasts (immunoblot); format: cell-based, rat; details: 36 h, suramin 100 μM
Method: as §1, §2

NRK-49F cells [5] = assay: Cleaved PARP and cleaved caspase-3 (apoptosis hallmarks), immunoblot; format: cell-based, rat; details: 100 μM suramin, 36 h
Method: Cell Culture and Treatments. NRK-49F cells were cultured in Dulbecco's modified eagle's medium (DMEM) (Sigma-Aldrich, St. Louis, Mo.) containing 5% fetal bovine serum (FBS), 0.5% penicillin and streptomycin in an atmosphere of 5% CO2 and 95% air at 37° C. […] Immunoblot Analysis. Immunoblot analysis of NRK-49F cells and tissue samples were conducted as described previously. The densitometry analysis of immunoblot results was conducted by using NIH Image software (National Institutes of Health, Bethesda, Md.).

[6] = 20 mg/kg at day 3, kidney at day 10
[7] = 10 mg/kg once per week for two weeks
[8] = 10 mg/kg once per week for two weeks, from week 2 after surgery

Cc1ccc(C(=O)Nc2ccc(S(=O)(=O)O)c3cc(S(=O)(=O)O)cc(S(=O)(=O)O)c23)cc1NC(=O)c1cccc(NC(=O)Nc2cccc(C(=O)Nc3cc(C(=O)Nc4ccc(S(=O)(=O)O)c5cc(S(=O)(=O)O)cc(S(=O)(=O)O)c45)ccc3C)c2)c1 [Suramin]
TGF-β1-induced fibronectin expression (NRK-49F cells [1]): suppressed further increase | TGF-β1-induced α-SMA expression (NRK-49F cells [1]): suppressed further increase | EGFR phosphorylation (obstructed kidney (UUO); [6]): significant reduction | PDGFR phosphorylation (obstructed kidney (UUO); [6]): significant reduction | Smad3 phosphorylation (obstructed kidney (UUO); [6]): largely blocked | expression of total EGFR (obstructed kidney (UUO); [6]): not affected | expression of total PDGFR (obstructed kidney (UUO); [6]): not affected | phosphorylation of ERK1/2 (obstructed kidney (UUO); [6]): not further increased | phosphorylation of STAT3 (obstructed kidney (UUO); [6]): not further increased | total protein level of ERK1/2 (obstructed kidney (UUO); [6]): did not alter | total protein level of STAT3 (obstructed kidney (UUO); [6]): did not alter | α-SMA expression (obstructed kidney (UUO); 20 mg/kg at day 3, both 7- and 14-day treatment groups): reduced | Masson trichrome-positive areas (obstructed kidney (UUO); 20 mg/kg i.p. single dose at day 3, kidney at day 10): reduced on day 10 to a level similar to that in the kidney at 3 days of obstruction | half life [2]: 21 days | half life ([2]; listed as suramin): at least 21 days | TGF-β1 induced phosphorylation of Smad2 (NRK-49F cells [3]): abolished | TGF-β1 induced phosphorylation of Smad3 (NRK-49F cells [3]): abolished | TGF-β1-induced fibronectin expression (NRK-49F cells [3]; in the presence of suramin): abolished | TGF-β1-induced α-SMA expression (NRK-49F cells [3]; in the presence of suramin): suppressed to the basal level | de novo expression of fibronectin in the remnant kidney (remnant kidney; [7]): abolished | de novo expression of α-SMA in the remnant kidney (remnant kidney; [7]): abolished | increased expression of type 1 collagen in the remnant kidney (remnant kidney; [7]): abolished | 24-hour proteinuria (remnant kidney; [8]): significantly reduced | serum creatinine (remnant kidney; [8]): significantly reduced | hypertension (mean blood pressure) (remnant kidney; 10 mg/kg once per week for two weeks, day 28): not significantly affected | kidney histology (glomerular and tubulointerstitial damage) (remnant kidney; 10 mg/kg once per week for two weeks, week 4): preserved kidney architecture and prevented the glomerular and tubulointerstitial damage | pathological changes in the kidney (remnant kidney; suramin alone-treated (sham-operated) animals): no obvious pathological changes | phosphorylation of EGFR (NRK-49F cells [4]): complete inhibition | phosphorylation of ERK1/2 (NRK-49F cells [4]): complete inhibition | phosphorylation of PDGFR (NRK-49F cells [4]): complete inhibition | phosphorylation of STAT3 (NRK-49F cells [4]): complete inhibition | serum-induced fibronectin expression (NRK-49F cells [4]): complete blockade | serum-induced α-SMA expression (NRK-49F cells [4]): complete blockade | cleavage of caspase-3 (NRK-49F cells [5]): did not induce cleavage | cleavage of poly (ADP-ribose) polymerase (PARP) (NRK-49F cells [5]): did not induce cleavage
